Experimental data: US20210387949A1, “NEW SELECTIVE MODULATORS OF INSECT NICOTINIC ACETYLCHOLINE RECEPTORS” (UNIVERSITE DE NANTES, priority 2018, published 2021)
Where two headings read alike, the source gives them in different places. Blank lines part the entries; values can stand above or below the compound they belong to.

Experiments:
[1] = test system: Honey bees Apis mellifera; settings: literature values (Iwasa 2004; Stark 1995); cited from earlier work
[2] = test system: cercal nerve giant interneuron synapses within the cockroach sixth abdominal ganglion (A6); assay: Mannitol-gap recordings, neurotoxic effect on insect cholinergic synaptic transmission; format: cell-based; settings: for EC50: read-out: EC50 of depolarization; for Depolarization of the sixth abdominal ganglion: in words; for Reversal of synaptic depolarization after wash-out: effect also observed 2 h after application
Experimental: Neurotoxic effect was studied using mannitol-gap recordings. Experiments were performed on the cercal nerve giant interneuron synapses located within the cockroach sixth abdominal ganglion (A6) using the mannitol-gap method pioneered by Callec (Callec, J. J.; Sattelle, D. B., A simple technique for monitoring the synaptic actions of pharmacological agents. J Exp Biol 1973, 59, (3), 725-38; and Callec, J. J.; Sattelle, D. B.; Hue, B.; Pelhate, M., Central synaptic actions of pharmacological agents in insects: oil-gap and mannitol-gap studies. In Neurotox 79, Sherwood, M., Ed. Plenum Press: New York, 1980; pp 93-100).
Electrical events were recorded using external electrodes. A non-electrolyte medium (mannitol) was interposed between the recording sites (Callec, J. J.; Sattelle, D. B.; Hue, B.; Pelhate, M., Central synaptic actions of pharmacological agents in insects: oil-gap and mannitol-gap studies. In Neurotox 79, Sherwood, M., Ed. Plenum Press: New York, 1980; pp 93-100). The main advantages of this method were to preserve the recordings of the unitary or evoked excitatory postsynaptic potentials (EPSP) and the postsynaptic polarization. Consequently, monitoring the variations of EPSP amplitude and/or polarization induced by drug application enables dose-response curves to be recorded. Moreover, this set-up allows long-term experiments to be performed and test solutions can be readily applied without any of the technical problems associated with intracellular recording.
A6 was carefully desheathed to facilitate penetration of bath-applied drugs. The recording electrodes were connected to the input of high-impedance amplifier, whose outputs were passed to a numeric oscilloscope (Hameg, Germany) and a chart recorder (Kipp and Zonen, B D 111, Holland). Variation of postsynaptic polarization was monitored on a chart recorder and the cEPSPs were evoked by electrical stimulations of the ipsilateral cercal nerve XI using a dual pulse stimulator (Campden 915, USA). TMX was applied during 3 min in the same conditions as previously published (Buckingham, S.; Lapied, B.; Corronc, H.; Sattelle, F., Imidacloprid actions on insect neuronal acetylcholine receptors. J Exp Biol 1997, 200, (Pt 21), 2685-92; and Thany, S. H., Agonist actions of clothianidin on synaptic and extrasynaptic nicotinic acetylcholine receptors expressed on cockroach sixth abdominal ganglion. Neurotoxicology 2009, 30, (6), 1045-52), with a micropump fast perfusion (Harvard Apparatus) that produced a constant solution exchange (500 μL/min). All muscarinic and nicotinic antagonists were bath-applied for at least 20 min before a single application of TMX. Recordings were made at room temperature.
To compare the depolarizations, the peak amplitudes were normalized (V/Vmax). The dose-response curve was derived from the fitted curve following the equation:
y=Vmin+(Vmax−Vmin)/(1+10^(log EC^50^−X)H)
where Y is the normalized response, Vmax and Vmin are the maximum and minimum responses, H is the Hill coefficient, EC50 is the concentration giving half the maximum response and X is the logarithm of the compound concentration.

[3] = test system: honeybee Apis mellifera; assay: Oral toxicity against honeybee; format: in vivo; settings: for % mortality 24 h / % mortality 48 h: oral, DMSO 1%; for Toxicity for bees: higher concentrations (150 ng/bee), in words
Experimental: Honeybees were kept from hives located at the University of Orleans and transferred to the laboratory incubators for experiments (30±1.5° C.; 12/12 h 0/N). They were placed in six different cages, 20 bees per cage, with 40% sucrose solution (control group) or tested compounds.
All tests were carried out using adult worker honeybees, Apis mellifera L (Hymenoptera: Apidae) taken from two queen colonies. These colonies were disease-free and had received no chemical treatments (Eg. Varroacide). For oral toxicity tests, adult worker bees were collected from the hive combs (avoiding the brood nest area) or from the flight board.
Stock solutions of compounds were dissolved in dimethyl sulfoxide (DMSO) to obtain 500 ng/μL and stocked at −20° C. These samples were then diluted in sucrose solution (40%; w/v), for final experiments. […] Solutions of the test doses were stirred immediately prior to use and were visually homogenous when proposed to bees. Bee allocation to the treatment groups was made impartially. Before being used for the test, bees were subjected to a starvation period of between 2 h and 3 h under test conditions (For review, see Nauen, R.; Ebbinghaus-Kintscher, U.; Schmuck, R., Toxicity and nicotinic acetylcholine receptor interaction of imidacloprid and its metabolites in Apis mellifera (Hymenoptera: Apidae). Pest Management Science 2001, 57, (7), 577-586).
Six batches of bees (20 bees per batch) were subjected to different doses of the test compound (nominal doses between 50 ng/bee and […]). Doses were determined according to the lethal dose of neonicotinoid insecticides inducing bee toxic effects (Table 3). Controls received sucrose solution containing 0.25% DMSO. The glass test feeders containing any unconsumed portions of the doses were removed and after each experiment a fresh sucrose solution was supplied in feeders within the cages. For each concentration three replicates were made (180 bees/concentration). Mortality was measured at 24 h and 48 h after treatment.

[4] = bath application, dose-response curve of sixth abdominal ganglion depolarization

Structure (SMILES): CN/C(=N\[N+](=O)[O-])NCc1cnc(Cl)s1 [Clothianidin]
LD50 [1]: 21.8 ng/bee (Iwasa 2004)

melting point: 129 °C
Structure (SMILES): Cc1ccc(S(=O)(=O)N2CCCC2)cc1 [Compound 3aa, 1-tosylpyrrolidine]

melting point: 102 °C
Structure (SMILES): Cc1ccc(S(=O)(=O)N2CCCC2C#N)cc1 (centres unmarked) [Compound 3ab, 1-tosylpyrrolidine-2-carbonitrile]

melting point: 102 °C
Structure (SMILES): Cc1ccc(S(=O)(=O)N2CCC[C@H]2C#N)cc1 [Compound 3ac, (S)-1-tosylpyrrolidine-2-carbonitrile]

melting point: 106 °C
Structure (SMILES): O=S(=O)(c1ccc(Cl)cc1)N1CCCC1 [Compound 3ba, 1-((4-chlorophenyl)sulfonyl) pyrrolidine]

melting point: 115 °C
Structure (SMILES): N#CC1CCCN1S(=O)(=O)c1ccc(Cl)cc1 (centres unmarked) [Compound 3bb, 1-((4-chlorophenyl)sulfonyl) pyrrolidine-2-carbonitrile]

melting point: 115 °C
Structure (SMILES): N#C[C@@H]1CCCN1S(=O)(=O)c1ccc(Cl)cc1 [Compound 3bc, (S)-1-((4-chlorophenyl)sulfonyl) pyrrolidine-2-carbonitrile]

melting point: 134 °C
Structure (SMILES): O=S(=O)(c1ccc(Cl)nc1)N1CCCC1 [Compound 3da, 2-chloro-5-(pyrrolidin-1-ylsulfonyl)pyridine]

Structure (SMILES): N#C[C@@H]1CCCN1S(=O)(=O)c1ccc(Cl)nc1 [Compound 3i, (S)-1-((6-chloropyridin-3-yl)sulfonyl)pyrrolidine-2-carbonitrile]
EC50 [2, 4]: 19 µM | Depolarization of the sixth abdominal ganglion ([2]; bath application): strong depolarization | Reversal of synaptic depolarization after wash-out [2]: not reversed after wash-out | % mortality 24 h ([3]; 50 ng/bee): 3.3% | % mortality 48 h ([3]; 50 ng/bee): 10.0% | % mortality 24 h ([3]; 150 ng/bee): 0% | % mortality 48 h ([3]; 150 ng/bee): 0%

Structure (SMILES): COc1ccc(S(=O)(=O)N2CCCC2)cn1 [Compound 3ii, 2-methoxy-5-(pyrrolidin-1-ylsulfonyl)pyridine]
EC50 [2, 4]: 8.02 µM | Depolarization of the sixth abdominal ganglion ([2]; bath application): strong depolarization | Reversal of synaptic depolarization after wash-out [2]: not reversed after wash-out | % mortality 24 h ([3]; 50 ng/bee): 0% | % mortality 48 h ([3]; 50 ng/bee): 3.3% | % mortality 24 h ([3]; 150 ng/bee): 0% | % mortality 48 h ([3]; 150 ng/bee): 1.2% | Toxicity for bees [3]: not toxic for bees

Structure (SMILES): COc1ccc(S(=O)(=O)N2CCCC2C#N)cn1 (centres unmarked) [Compound 3iii, 1-((6-methoxypyridin-3-yl)sulfonyl)pyrrolidine-2-carbonitrile]
EC50 [2, 4]: 4.25 µM | Depolarization of the sixth abdominal ganglion ([2]; bath application): strong depolarization | Reversal of synaptic depolarization after wash-out [2]: not reversed after wash-out | % mortality 24 h ([3]; 50 ng/bee): 3.3% | % mortality 48 h ([3]; 50 ng/bee): 5.0% | % mortality 24 h ([3]; 150 ng/bee): 2.5% | % mortality 48 h ([3]; 150 ng/bee): 3.7%

Structure (SMILES): Cc1ccc(S(=O)(=O)N2CCC[C@H]2C#N)cn1 [Compound 3iv, (S)-1-((6-methylpyridin-3-yl)sulfonyl)pyrrolidine-2-carbonitrile]
Depolarization of the sixth abdominal ganglion ([2]; bath application): strong depolarization | Reversal of synaptic depolarization after wash-out [2]: not reversed after wash-out | % mortality 24 h ([3]; 50 ng/bee): 0% | % mortality 48 h ([3]; 50 ng/bee): 0% | % mortality 24 h ([3]; 150 ng/bee): 0% | % mortality 48 h ([3]; 150 ng/bee): 0% | Toxicity for bees [3]: not toxic for bees

Structure (SMILES): CN/C(=N/CC1CCOC1)N[N+](=O)[O-] (centres unmarked) [Dinotefuran]
LD50 [1]: 75 ng/bee (Iwasa 2004)

Structure (SMILES): O=[N+]([O-])NC1=NCCN1Cc1ccc(Cl)nc1 [Imidacloprid, reference compound]
EC50 [2]: ~15 µM

Structure (SMILES): CCN(Cc1ccc(Cl)nc1)/C(=C/[N+](=O)[O-])NC [Nitenpyram]
LD50 [1]: 138 ng/bee

Structure (SMILES): CN1COCN(Cc2cnc(Cl)s2)/C1=N\[N+](=O)[O-] [Thiamethoxam]
LD50 [1]: 29.9 ng/bee (Iwasa 2004)
